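A five-concentration, 48-hour dose response in 96-well plates underlies each endpoint, interpolated linearly between surrounding concentrations. At the GI50, growth is halved. Definition used: TGI = concentration required for complete inhibition of growth.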

Among the test systems are MOLT-4 leukemia; HT29 colon; M14 melanoma; OVCAR-8 ovarian; IGROV1 ovarian; LOX IMVI melanoma; NCI-H460 lung; NCI-H522 lung; 786-0 renal; MDA-MB-435.
Holding throughout (experiment): NCI anticancer screen, dose series, 48 h

`CN1CC(C(=O)C2C(=O)c3ccccc3C2=O)C(=O)C(=O)C(C(=O)C2C(=O)c3ccccc3C2=O)C1` (stereo not drawn): the TGI in the assay with MOLT-4 leukemia is greater than 100 µM; in the assay on HT29 colon it was greater than 100 µM; in the assay on M14 melanoma, greater than 10 µM; in the assay on OVCAR-8 ovarian, greater than 100 µM; with IGROV1 ovarian, greater than 100 µM; in the assay on LOX IMVI melanoma it was greater than 100 µM. Besides, the TGI with NCI-H460 lung, with NCI-H522 lung and with 786-0 renal was greater than 100 µM throughout.
As to `CCCCOC(=O)NC(=O)c1cn(CCSCCOC(=O)NCCCCCCNC(=O)OCCSCCn2cc(C(=O)NC(=O)OCCCC)c(=O)[nH]c2=O)c(=O)[nH]c1=O`, the TGI with HT29 colon, in the assay on M14 melanoma, in the assay on IGROV1 ovarian, in the assay on LOX IMVI melanoma, with NCI-H460 lung and with NCI-H522 lung was greater than 100 µM in each case. For the same compound, the TGI with 786-0 renal is greater than 100 µM.
In the case of `COc1cc2c(cc1O)CC13CCC(=O)N1CCc1cc(OC)c(O)c-2c13` (stereo not drawn), the TGI in the assay on MOLT-4 leukemia, in the assay on HT29 colon, with M14 melanoma, in the assay on OVCAR-8 ovarian, in the assay with IGROV1 ovarian and with LOX IMVI melanoma was greater than 68.1 µM each time. The TGI in the assay on NCI-H460 lung and in the assay with 786-0 renal was greater than 68.1 µM throughout.
With `CC(=O)CCCCO`, the TGI in the assay with MOLT-4 leukemia, in the assay on HT29 colon, with M14 melanoma, in the assay with OVCAR-8 ovarian, with IGROV1 ovarian and in the assay with LOX IMVI melanoma was greater than 100 µM in each case. For the same compound, the TGI with NCI-H460 lung, with NCI-H522 lung and with 786-0 renal was greater than 100 µM each time.
For the compound `COc1ccccc1NC(=O)C1=C(C)NC(C)=C(C(=O)Nc2ccccc2OC)C1c1ccc(C)cc1`, the TGI with HT29 colon, in the assay on M14 melanoma, in the assay on OVCAR-8 ovarian, with IGROV1 ovarian, with LOX IMVI melanoma and in the assay with NCI-H460 lung was greater than 100 µM in each case. The TGI in the assay on NCI-H522 lung and in the assay on 786-0 renal was greater than 100 µM throughout.
As to `Fc1ccc(C2SCc3nc4ccccc4n32)cc1` (stereo not drawn), the TGI in the assay with MOLT-4 leukemia, in the assay with HT29 colon, in the assay on M14 melanoma, with OVCAR-8 ovarian, with IGROV1 ovarian and in the assay on LOX IMVI melanoma was greater than 100 µM in each case. Further, the TGI in the assay on NCI-H460 lung was greater than 100 µM; in the assay with NCI-H522 lung, 70.9 µM; in the assay with 786-0 renal, greater than 100 µM.
As to `Cc1c(C)[n+](=O)c(C)c(C)n1[O-]`, the GI50 in the assay with MOLT-4 leukemia, in the assay with M14 melanoma, in the assay with MDA-MB-435, in the assay with OVCAR-8 ovarian, with IGROV1 ovarian and in the assay with LOX IMVI melanoma was greater than 100 µM in each case. Also, the GI50 in the assay on NCI-H460 lung and with 786-0 renal was greater than 100 µM each time. Besides, the TGI in the assay with MOLT-4 leukemia, in the assay with M14 melanoma, in the assay on MDA-MB-435, with OVCAR-8 ovarian, with IGROV1 ovarian and with LOX IMVI melanoma was greater than 100 µM throughout. The TGI in the assay on NCI-H460 lung and with 786-0 renal was greater than 100 µM throughout.
In the case of `O=C(CC(=O)N1N=C(N2c3ccccc3Sc3ccccc32)CC1c1ccccc1)Nc1ccc(Cl)cc1` (stereo not drawn), the TGI in the assay with HT29 colon, in the assay with M14 melanoma, with OVCAR-8 ovarian, with IGROV1 ovarian, in the assay with LOX IMVI melanoma and in the assay on NCI-H460 lung was greater than 100 µM in each case. The compound also yielded a TGI in the assay on 786-0 renal greater than 100 µM.
Take `NC(=O)C(c1ccccc1)N1CCOCC1` (stereo not drawn): the TGI with MOLT-4 leukemia, in the assay on HT29 colon, in the assay with M14 melanoma, in the assay with OVCAR-8 ovarian, with IGROV1 ovarian and with LOX IMVI melanoma was greater than 100 µM in each case. Moreover, the TGI in the assay with NCI-H460 lung, with NCI-H522 lung and with 786-0 renal was greater than 100 µM in each case.
On to `CC(=O)OC1(C)C(=O)OC1(C)C(C)=O` (stereo not drawn), for which the TGI in the assay with MOLT-4 leukemia, with HT29 colon, with M14 melanoma, with OVCAR-8 ovarian, in the assay on IGROV1 ovarian and with LOX IMVI melanoma was greater than 100 µM throughout. Besides, the TGI in the assay on NCI-H522 lung and in the assay with 786-0 renal was greater than 100 µM throughout.
With `O=C1C(=O)N(c2ccc(Cl)cc2Cl)C(=O)C(=O)C1c1nc2ccccc2o1`, the TGI in the assay on MOLT-4 leukemia, in the assay with HT29 colon, in the assay on M14 melanoma, in the assay with OVCAR-8 ovarian, with IGROV1 ovarian and in the assay on NCI-H460 lung was greater than 100 µM in each case. Also, the TGI in the assay on NCI-H522 lung and in the assay with 786-0 renal was greater than 100 µM each time.
For the compound `c1ccc2c(c1)[nH]c1cnc3c4cccnc4[nH]c3c12`, the TGI worked out at 49.3 µM in the assay on MOLT-4 leukemia; 34.6 µM with HT29 colon; 30.1 µM with M14 melanoma; 32 µM with OVCAR-8 ovarian; 40.1 µM with IGROV1 ovarian; 45 µM with LOX IMVI melanoma. For the same compound, the values for the TGI with NCI-H460 lung and with 786-0 renal were 50.1 µM and 31.7 µM, respectively.
On to `O=C1CN(C(=O)c2ccccc2)Cc2[nH]c3ccccc3c21`, for which the TGI in the assay on MOLT-4 leukemia, with HT29 colon, in the assay on M14 melanoma, in the assay on OVCAR-8 ovarian, in the assay with IGROV1 ovarian and in the assay with LOX IMVI melanoma was greater than 100 µM in each case. Further, the TGI in the assay on NCI-H460 lung, in the assay with NCI-H522 lung and in the assay on 786-0 renal was greater than 100 µM each time.
In the case of `O=C(OCC1CO1)c1cccs1` (stereo not drawn), the TGI with MOLT-4 leukemia, in the assay with HT29 colon, with M14 melanoma, in the assay with OVCAR-8 ovarian, with IGROV1 ovarian and in the assay with LOX IMVI melanoma was greater than 100 µM in each case. For the same compound, the TGI in the assay on NCI-H460 lung was greater than 100 µM; with NCI-H522 lung, 36.9 µM; with 786-0 renal, greater than 100 µM.
Consider `CCN(CCCl)CCCNc1c2ccccc2nc2ccc(OC)cc12`, for which the GI50 was 15.7 µM with MOLT-4 leukemia; 82.3 µM in the assay on HT29 colon; 213 µM in the assay with M14 melanoma; 129 µM with NCI-H460 lung; 103 µM with NCI-H522 lung; 102 µM in the assay with 786-0 renal. The TGI with OVCAR-8 ovarian was 1.63 µM; in the assay with IGROV1 ovarian, 1510 µM; in the assay with LOX IMVI melanoma, 0.669 µM.
